Laboratory results as given in US9682125B2, “Compositions and methods for treating cognitive deficits” (Case Western Reserve University, priority 2011, dated 2017).
No end group written: not given here.

Legend:
SAMP8 mice [1] = experiment: Morris water maze (learning, probe and retention trials); type: in vivo; conditions: chronic amylin; for MWM maze learning: acute leptin at time of testing, FIGS. 10 and 11
From the text: In this Example, we examined whether chronic amylin administration has beneficial effects on cognition using senescence-accelerated SAMP8 mice, a validated animal model of mild cognitive impairment (MCI)/early Alzheimer's disease (AD) in which the mice experience premature cognitive deficits. Given that the anorectic effects of amylin are specifically synergistic with another metabolic hormone, leptin, we also studied whether amylin's effects on cognition might be enhanced when used in conjunction with leptin.
(§1) To validate the hypothesis that amylin is a cognitive enhancing drug that can be given alone and that may provide benefit for cognitive dysfunction associated diseases such as AD or age-related cognitive dysfunction (normal or Mild cognitive impairment (MCI)), we determined the ability of chronic treatment with amylin to improve cognitive function in the Morris water maze and object recognition tasks in the age accelerated SAMP8 mouse model, a model of MCI/early AD. […] Furthermore, improvement of amylin treatment in the retention trial, carried out 24 hrs reflects the ability of amylin to improve consolidation to long-term, permanent memory. (FIG. 9).
(§2) We were able to test this hypothesis under chronic amylin treatment and acute delivery of leptin at time of testing in SAMP8 mice. […] The slope of curve for the SAMP8 mice treated with a combination of amylin and leptin was the steepest […]. […] Novel object recognition testing, another cognition-based test, supported our findings in the MWM. […] It is important to note that these studies were carried out in cognitively impaired animals with leptin treatments under acute conditions. As such, it is likely that the lack of observable synergistic additive magnitude derives from insufficient length of leptin treatment.

[2] = Body weight change during 5-week pramlintide minipump infusion; type: in vivo; conditions: over 5-week treatment period, 0.24 mg/kg/day s.c. minipump, SAMP8 mice
Description: SAMP8 and SAM-resistant 1 (SAMR1) mice were obtained from an established colony at Case Western Reserve University. All animals were group housed, provided ad libitum access to a standard diet and water, and were exposed to a 12/12 light/dark daily cycle. The mice were housed under pathogen-free conditions at a temperature of 21±1.5° C.
(§3) All SAMP8 mice were treated with either saline or pramlintide beginning at 6 months of age. A subcutaneous ALZET® osmotic minipump (Model 2002, Durect Corp., Cupertino, Calif., USA) was surgically implanted into all mice as described previously^26. The osmotic mini-pump infused 0.24 mg/kg/day pramlintide acetate (0.6 mg/mL pramlintide, Amylin Pharmaceuticals, Inc., San Diego, Calif.) or saline at a rate of 0.5 μL/hr. Pumps were replaced with new refilled pumps every two weeks throughout the study duration. All animals were weighed weekly throughout the course of the experiment.
To investigate the effects of pramlintide on memory, SAMP8 mice were continually infused with saline or pramlintide for a total of five weeks. Consistent with pramlintide's known anorexic effect, the pramlintide-treated mice experienced a change in body weight of −5.8% (Std=4.7) over the course of the treatment period as compared to a weight change of −0.1% (6.1) for the saline-treated mice. […]

SAMP8 mice [3] = experiment: Object recognition task; type: in vivo; conditions: 7-month SAMP8 mice
Description: as §3
A total of 20 SAMP8 mice were used in the object recognition task. […] The mice were allowed to explore the environment for 10 minutes, during which their movements were recorded with a tracking system. […]
Videos recordings of the retention session were scored by an investigator blinded to the treatment groups. Object exploration, defined as the duration of time in which the head of the mouse faced less than ½ cm from the object, was measured during the training and retention sessions. The frequency of object exploration was also recorded, as well as the frequency and time spent rearing and grooming to determine general exploratory behavior. […] The recognition index was calculated as the percent of time spent exploring the novel object versus the total time spent exploring the objects.

synapsin I = experiment: Western blotting of hippocampal synapsin I; type: in vivo; conditions: SAMP8 mice treated five weeks, vs saline
Description: (§4) All SAMP8 mice were sacrificed by lethal overdose 5 weeks after the initiation of the pramlintide and saline treatments. The brains were harvested and the hippocampus was dissected and homogenized in protease and phosphatase inhibitor-supplemented 1×RIPA lysis/extraction buffer (Pierce). Total protein was quantified using the BCA Protein Assay Kit (Pierce). 10-20 μg of protein was run in a 10% SDS-PAGE gel and the protein was transferred onto Polyvinylidene fluoride (PVDF) membranes (Millipore). After blocking for one hour in 5% milk, the membranes were incubated overnight at 4° C. in the primary antibody at a 1:1000 dilution, followed by a 1-hour incubation with HRP-conjugated IgG at a 1:10,000 dilution. Primary antibodies used were CDK5 (Millipore), P35/P25 (Millipore), Synapsin I (Santa Cruz), and HO-1 (Gift from Dr. Zhu). The blots were developed using Immobilon Western Chemiluminescent HRP Substrate (Millipore) and imaged using FluorChem M (ProteinSimple). Membranes were stripped using Restore Western Blot Stripping Buffer (Thermo Scientific) for reprobing. Quantifications were performed using ImageJ software.

CDK5 = experiment: Western blotting of hippocampal CDK5; type: in vivo; conditions: SAMP8 mice treated five weeks, relative to saline-treated group
Description: as §4

p35, p25 = experiment: Western blotting of hippocampal p35/p25; type: in vivo; conditions: hippocampus, SAMP8 mice, five weeks, vs saline
Description: as §4

HO-1 = experiment: Western blotting of hippocampal HO-1; type: in vivo; conditions: SAMP8 mice, 5 weeks, compared to saline-treated mice
Description: as §4

cyclooxygenase 2 (COX-2) = experiment: Cellular stress immunohistochemistry, COX-2; type: in vivo, SAMR1 mice; conditions: mice treated for 2 weeks, compared to saline-treated mice
Description: (§5) To determine the acute effects of pramilide on potential mechanisms associated with cognitive function a total of 12 control mice (SAMR1) 9 months of age were used to measure the effects of pramlintide on hippocampal neurogenesis. Half of the mice (n=6) were infused by minipump with pramlintide for a total of two weeks, while the other half (n=6) received minipumps filled with saline. For the last seven days of the experiment, all mice received daily intraperitoneal injections of 50 mg/kg BRDU (Sigma, St Louis, […].) dissolved in 0.9% saline and filtered at […]. One day after the last BRDU injection, mice were deeply anesthetized and transcranially perfused using 4% paraformaldehyde in 0.9% saline. The brains were then extracted and post-fixed in 4% paraformaldehyde for 24 hours, after which they were placed in a 30% sucrose solution for three days. All brains were quick-frozen and then cut into 40 μm sagital sections using a cryostatand stored at 4° C. as floating sections.
(§6) To determine whether pramilide had more acute neuroprotective effects in non-pathological conditions, sections from the same mice used for neurogenesis were used to determine markers of cellular stress. […]
(§7) Tissue sections were quantified. […] Six fields across the hippocampus were drawn and % staining within that field was measured using Metamorph software. […]

4-Hydroxynonenal (HNE) = experiment: Cellular stress immunohistochemistry, HNE; type: in vivo, SAMR1 mice; conditions: mice treated for 2 weeks, compared to saline-treated mice
Description: as §5, §6, §7

[4] = system: BrdU-positive cells in the dentate gyrus; experiment: BrdU immunostaining, hippocampal neurogenesis; type: in vivo; conditions: 9-month SAMR1 mice, two weeks minipump, compared to saline-treated mice
Description: as §5
BRDU immunohistochemistry was performed as previously described. […]
A validated sterology protocol was used to quantify BrdU-labeled cells in the dentate gyrus. […] All BrdU-positive cells in the dentate gyrus of the hippocampus were counted in every 6th section through the hippocampus, for a total of 12 sections per animal. […]

SAMP8 mice [5] = experiment: Novel object recognition testing; type: in vivo; conditions: chronic amylin, leptin delivered acutely, vs saline, FIG. 13
From the text: as §1, §2

In the case of “amylin: 37-amino acid polypeptide hormone normally co-secreted with insulin by pancreatic beta cells (KCNTATCATQRLANFLVHSSNNFGAILSSTNVGSNTY; not fully specified (C-terminus, bridges); cysteine pairing not given here; UniProt P10997 34-70, looked up)”, the “learning of the MWM task” value (SAMP8 mice [1]; SAMP8 (P8) vs non-treated P8, FIG. 8) is reported as “potent effect on learning”, the MWM probe trial (SAMP8 mice [1]; SAMP8 vs non-treated P8, FIG. 9) is reported as “perform better than non-treated P8” and the MWM maze learning (SAMP8 mice [1]; SAMP8 mice) is reported as “improved”. The MWM retention trial (SAMP8 mice [1]; retention carried out 24 hrs, FIG. 9) was “improvement”.

With `CC[C@H](C)[C@H](NC(=O)[C@@H]1CCCN1C(=O)CNC(=O)[C@H](Cc1ccccc1)NC(=O)[C@H](CC(N)=O)NC(=O)[C@H](CC(N)=O)NC(=O)[C@H](CO)NC(=O)[C@H](CO)NC(=O)[C@H](Cc1c[nH]cn1)NC(=O)[C@@H](NC(=O)[C@H](CC(C)C)NC(=O)[C@H](Cc1ccccc1)NC(=O)[C@H](CC(N)=O)NC(=O)[C@H](C)NC(=O)[C@H](CC(C)C)NC(=O)[C@H](CCCNC(=N)N)NC(=O)[C@H](CCC(N)=O)NC(=O)[C@@H](NC(=O)[C@H](C)NC(=O)[C@@H]1CSSC[C@H](NC(=O)[C@@H](N)CCCCN)C(=O)N[C@@H](CC(N)=O)C(=O)N[C@@H]([C@@H](C)O)C(=O)N[C@@H](C)C(=O)N[C@@H]([C@@H](C)O)C(=O)N1)[C@@H](C)O)C(C)C)C(=O)N[C@@H](CC(C)C)C(=O)N1CCC[C@H]1C(=O)N1CCC[C@H]1C(=O)N[C@H](C(=O)N[C@@H](CC(N)=O)C(=O)N[C@H](C(=O)NCC(=O)N[C@@H](CO)C(=O)N[C@@H](CC(N)=O)C(=O)N[C@H](C(=O)N[C@@H](Cc1ccc(O)cc1)C(N)=O)[C@@H](C)O)C(C)C)[C@@H](C)O` [pramlintide] the “change in body weight” value [2] was −5.8%, the recognition index (SAMP8 mice [3]; 5 weeks infusion, retention test 3 hours after training, vs saline) was 0.67 (Std=0.06) and the “difference score (recognition memory)” value (SAMP8 mice [3]; chronic treatment, vs saline-treated controls) was “significantly increased”. The “hippocampal expression of synapsin I” value (synapsin I) was “significantly increase”, the “hippocampal expression of the protein CDK5” value (CDK5) was “significantly increased” and the “amount of cleavage product p25” value (p35, p25) was “no differences”. The “amount of the CDK5 activator p35” value (p35, p25) was “no differences”, the “ratio of p25/p35” value (p35, p25) was “no differences” and the “expression of the protein HO-1 in the hippocampus” value (HO-1) was “significantly decreased”. The “COX-2 immunostaining in the hippocampus” value (cyclooxygenase 2 (COX-2)) was “significant decreases”, the “HNE immunostaining in the hippocampus” value (4-Hydroxynonenal (HNE)) was “trend toward decreased” and the “more BrdU-positive cells in the dentate gyrus” value [4] was 40%.

B1: leptin: metabolic hormone, delivered acutely at time of testing (protein, UniProt P41160 22-167, looked up)
Leptin: VPIQKVQDDTKTLIKTIVTRINDISHTQSVSAKQRVTGLDFIPGLHPILSLSKMDQTLAVYQQVLTSLPSQNVLQIANDLENLRDLLHLLAFSKSCSLPQTSGLQKPESLDGVLEASLYSTEVVALSRLQGSLQDILQQLDVSPEC
In the case of B1, the MWM maze learning (SAMP8 mice [1]; SAMP8 mice) is reported as “improved”, the MWM probe/retention trials (SAMP8 mice [1]; acute leptin, SAMP8 mice, compared to saline, FIG. 12) is reported as “no benefits” and the “novel object recognition, discrimination ratio” value (SAMP8 mice [5]) is reported as “no benefits”.
